Consider three compounds from paper PMC4774911, “Biochemical Screening of Five Protein Kinases from Plasmodium falciparum against 14,000 Cell-Active Compounds” (PLoS ONE, 2016).

Broadly, the IC50 is the concentration at which inhibition is half-maximal. A low value points to higher potency.

Several values for one entry are separate records, joined by “and”; a condition that tells them apart may be missing. Identical values can stand only once. Like-named read-outs stand apart in the source and are kept apart here.

One test addresses MAP4K5 (Homo sapiens, UniProt Q9Y4K4). The test can be described thus: biochemical. The arrangement: species or system K562 (extract); replicate k of n = 2 (each experiment ID is one independent experiment; two experiment IDs per compound). Particulars: read-out: KDapp.
For a further test, the system named is HepG2 cells. Particulars: cited from earlier work.
The target in a further test is T1, MAP2K5 (Homo sapiens, UniProt Q13163).
T1 sequence (Q13163 1-448): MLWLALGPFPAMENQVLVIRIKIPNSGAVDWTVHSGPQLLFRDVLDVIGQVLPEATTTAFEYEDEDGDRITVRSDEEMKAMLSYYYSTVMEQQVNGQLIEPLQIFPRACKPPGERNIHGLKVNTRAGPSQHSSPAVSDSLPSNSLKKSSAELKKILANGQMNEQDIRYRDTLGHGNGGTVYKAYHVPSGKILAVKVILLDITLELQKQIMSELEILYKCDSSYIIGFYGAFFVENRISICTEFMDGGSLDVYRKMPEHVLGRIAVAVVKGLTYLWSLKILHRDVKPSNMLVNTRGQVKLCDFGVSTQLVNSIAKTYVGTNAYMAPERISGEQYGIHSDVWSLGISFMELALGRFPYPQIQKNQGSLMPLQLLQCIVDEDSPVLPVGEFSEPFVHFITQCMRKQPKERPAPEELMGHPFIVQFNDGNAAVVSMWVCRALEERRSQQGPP
Kind of test: biochemical.

Another test has as its target CSNK1A1 (Homo sapiens, UniProt P48729). Kind of test: biochemical. Particulars: read-out: KDapp. Details: endogenous in cells; host or cells: K562 cell extract; species or system K562 (extract); replicate k of n = 2 (each experiment ID is one independent experiment; two experiment IDs per compound).
A further test has as its target DDR1 (Homo sapiens, UniProt Q08345). Kind of test: biochemical. The settings on record: read-out: KDapp. Details: endogenous in cells; host or cells: K562 cell extract; species or system K562 (extract); replicate k of n = 2 (each experiment ID is one independent experiment; two experiment IDs per compound).
A further test deals with GSK3B (Homo sapiens, UniProt P49841). The test can be described thus: biochemical. Details: endogenous in cells; host or cells: K562 cell extract; species or system K562 (extract); replicate k of n = 2 (each experiment ID is one independent experiment; two experiment IDs per compound). The settings on record: read-out: KDapp.
The next test deals with T2, MERTK (Homo sapiens, UniProt Q12866).
T2 sequence (Q12866 1-999): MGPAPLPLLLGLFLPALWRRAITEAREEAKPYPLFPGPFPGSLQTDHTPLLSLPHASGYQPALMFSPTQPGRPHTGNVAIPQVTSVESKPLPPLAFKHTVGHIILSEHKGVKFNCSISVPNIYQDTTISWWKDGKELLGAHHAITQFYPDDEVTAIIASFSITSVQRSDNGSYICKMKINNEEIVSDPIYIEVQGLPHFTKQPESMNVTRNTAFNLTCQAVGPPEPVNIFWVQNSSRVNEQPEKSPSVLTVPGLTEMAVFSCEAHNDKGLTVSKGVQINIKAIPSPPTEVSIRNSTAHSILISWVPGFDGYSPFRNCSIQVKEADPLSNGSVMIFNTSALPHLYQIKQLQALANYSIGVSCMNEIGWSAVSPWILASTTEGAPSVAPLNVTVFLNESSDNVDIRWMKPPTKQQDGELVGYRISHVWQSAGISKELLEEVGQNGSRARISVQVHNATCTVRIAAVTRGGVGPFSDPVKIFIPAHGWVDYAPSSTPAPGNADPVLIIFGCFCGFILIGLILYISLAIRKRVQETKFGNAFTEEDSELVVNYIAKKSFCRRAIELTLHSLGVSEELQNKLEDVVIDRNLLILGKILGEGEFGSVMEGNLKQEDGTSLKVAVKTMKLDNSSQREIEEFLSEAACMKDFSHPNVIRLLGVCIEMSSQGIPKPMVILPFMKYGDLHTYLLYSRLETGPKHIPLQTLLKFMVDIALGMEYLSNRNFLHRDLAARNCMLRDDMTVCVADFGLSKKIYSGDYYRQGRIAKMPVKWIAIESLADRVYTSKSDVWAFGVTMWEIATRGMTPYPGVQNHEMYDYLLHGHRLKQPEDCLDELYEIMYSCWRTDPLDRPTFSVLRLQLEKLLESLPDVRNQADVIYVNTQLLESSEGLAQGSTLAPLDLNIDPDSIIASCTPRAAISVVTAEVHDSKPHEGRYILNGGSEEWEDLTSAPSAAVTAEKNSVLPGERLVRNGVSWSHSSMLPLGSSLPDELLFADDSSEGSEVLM
Kind of test: biochemical. Particulars: read-out: KDapp. The arrangement: endogenous in cells; host or cells: K562 cell extract; species or system K562 (extract); replicate k of n = 2 (each experiment ID is one independent experiment; two experiment IDs per compound).

For the next test, the target named is PIP5K3 (Homo sapiens, UniProt Q9Y2I7). The test can be described thus: biochemical. Details: endogenous in cells; host or cells: K562 cell extract; species or system K562 (extract); replicate k of n = 2 (each experiment ID is one independent experiment; two experiment IDs per compound). The settings on record: read-out: KDapp.
For a further test, the target named is STK10 (Homo sapiens, UniProt O94804). Kind of test: biochemical. The arrangement: endogenous in cells; host or cells: K562 cell extract; species or system K562 (extract); replicate k of n = 2 (each experiment ID is one independent experiment; two experiment IDs per compound). The settings on record: read-out: KDapp.
In another test the target is TNIK (Homo sapiens, UniProt Q9UKE5). Kind of test: biochemical. The arrangement: endogenous in cells; host or cells: K562 cell extract; species or system K562 (extract); replicate k of n = 2 (each experiment ID is one independent experiment; two experiment IDs per compound). Particulars: read-out: KDapp.
Chain of TNIK (Q9UKE5 whole entry): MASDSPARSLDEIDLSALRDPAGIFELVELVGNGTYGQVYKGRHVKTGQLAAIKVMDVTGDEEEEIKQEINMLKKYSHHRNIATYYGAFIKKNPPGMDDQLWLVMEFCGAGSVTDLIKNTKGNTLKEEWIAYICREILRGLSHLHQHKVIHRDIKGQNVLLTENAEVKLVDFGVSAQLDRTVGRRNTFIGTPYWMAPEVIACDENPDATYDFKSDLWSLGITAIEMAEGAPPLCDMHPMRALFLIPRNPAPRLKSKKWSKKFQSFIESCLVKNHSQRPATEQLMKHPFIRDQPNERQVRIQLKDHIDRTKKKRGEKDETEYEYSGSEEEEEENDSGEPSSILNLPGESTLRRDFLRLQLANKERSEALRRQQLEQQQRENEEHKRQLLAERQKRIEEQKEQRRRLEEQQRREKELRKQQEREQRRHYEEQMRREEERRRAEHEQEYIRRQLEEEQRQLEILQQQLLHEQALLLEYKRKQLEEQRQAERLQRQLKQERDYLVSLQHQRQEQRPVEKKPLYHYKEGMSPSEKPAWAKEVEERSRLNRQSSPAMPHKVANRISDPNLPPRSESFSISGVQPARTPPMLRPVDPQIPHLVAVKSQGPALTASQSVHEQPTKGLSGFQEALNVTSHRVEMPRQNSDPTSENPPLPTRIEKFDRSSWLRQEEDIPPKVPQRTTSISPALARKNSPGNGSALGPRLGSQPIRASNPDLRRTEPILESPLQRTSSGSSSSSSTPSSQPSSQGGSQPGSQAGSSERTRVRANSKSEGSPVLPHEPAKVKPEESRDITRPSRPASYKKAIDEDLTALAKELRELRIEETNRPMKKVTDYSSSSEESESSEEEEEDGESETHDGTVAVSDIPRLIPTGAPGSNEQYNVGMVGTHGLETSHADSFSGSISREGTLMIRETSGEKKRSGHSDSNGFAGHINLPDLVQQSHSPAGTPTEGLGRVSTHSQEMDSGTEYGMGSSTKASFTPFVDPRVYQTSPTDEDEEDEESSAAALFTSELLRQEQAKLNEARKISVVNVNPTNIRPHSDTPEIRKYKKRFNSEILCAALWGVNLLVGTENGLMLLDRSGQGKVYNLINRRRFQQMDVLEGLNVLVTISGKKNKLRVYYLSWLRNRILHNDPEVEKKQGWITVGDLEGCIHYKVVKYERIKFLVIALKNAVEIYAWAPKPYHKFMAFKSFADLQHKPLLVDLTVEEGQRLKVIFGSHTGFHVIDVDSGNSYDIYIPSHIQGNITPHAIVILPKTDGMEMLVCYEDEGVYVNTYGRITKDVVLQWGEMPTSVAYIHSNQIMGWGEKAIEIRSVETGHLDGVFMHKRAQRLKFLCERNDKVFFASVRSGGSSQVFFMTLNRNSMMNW

Chain of MAP4K5 (Q9Y4K4 whole entry): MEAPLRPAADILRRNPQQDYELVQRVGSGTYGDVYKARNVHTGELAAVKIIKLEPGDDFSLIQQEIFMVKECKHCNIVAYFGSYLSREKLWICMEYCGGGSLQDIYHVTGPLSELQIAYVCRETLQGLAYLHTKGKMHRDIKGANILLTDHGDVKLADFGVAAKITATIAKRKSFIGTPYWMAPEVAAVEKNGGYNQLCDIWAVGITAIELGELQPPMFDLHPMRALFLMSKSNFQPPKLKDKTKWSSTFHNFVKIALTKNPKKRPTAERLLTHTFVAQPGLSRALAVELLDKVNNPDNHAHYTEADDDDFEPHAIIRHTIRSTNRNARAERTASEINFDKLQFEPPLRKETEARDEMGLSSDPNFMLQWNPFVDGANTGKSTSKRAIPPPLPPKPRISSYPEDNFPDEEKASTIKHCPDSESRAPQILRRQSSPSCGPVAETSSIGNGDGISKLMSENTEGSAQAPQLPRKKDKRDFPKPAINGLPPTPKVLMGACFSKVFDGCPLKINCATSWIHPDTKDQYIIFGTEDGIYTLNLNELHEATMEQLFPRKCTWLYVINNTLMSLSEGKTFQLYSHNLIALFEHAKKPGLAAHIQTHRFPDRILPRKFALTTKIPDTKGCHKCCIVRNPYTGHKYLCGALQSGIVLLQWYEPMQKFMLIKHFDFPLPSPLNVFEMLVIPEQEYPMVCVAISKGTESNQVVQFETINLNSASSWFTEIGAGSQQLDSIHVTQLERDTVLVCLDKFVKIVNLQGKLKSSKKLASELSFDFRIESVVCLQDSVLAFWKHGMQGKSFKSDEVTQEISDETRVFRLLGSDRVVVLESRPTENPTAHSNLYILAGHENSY
Chain of GSK3B (P49841 whole entry): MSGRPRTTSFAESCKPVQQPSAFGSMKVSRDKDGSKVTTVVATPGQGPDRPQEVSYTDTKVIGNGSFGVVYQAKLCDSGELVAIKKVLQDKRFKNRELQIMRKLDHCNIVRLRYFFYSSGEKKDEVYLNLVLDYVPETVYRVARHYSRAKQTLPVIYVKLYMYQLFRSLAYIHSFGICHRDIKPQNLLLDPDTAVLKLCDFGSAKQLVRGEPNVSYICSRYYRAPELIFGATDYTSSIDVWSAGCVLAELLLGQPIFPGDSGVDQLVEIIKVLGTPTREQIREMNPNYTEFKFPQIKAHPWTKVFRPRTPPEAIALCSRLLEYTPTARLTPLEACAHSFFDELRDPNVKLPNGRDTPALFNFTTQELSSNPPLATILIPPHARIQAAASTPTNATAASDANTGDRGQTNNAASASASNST
Chain of PIP5K3 (Q9Y2I7 whole entry): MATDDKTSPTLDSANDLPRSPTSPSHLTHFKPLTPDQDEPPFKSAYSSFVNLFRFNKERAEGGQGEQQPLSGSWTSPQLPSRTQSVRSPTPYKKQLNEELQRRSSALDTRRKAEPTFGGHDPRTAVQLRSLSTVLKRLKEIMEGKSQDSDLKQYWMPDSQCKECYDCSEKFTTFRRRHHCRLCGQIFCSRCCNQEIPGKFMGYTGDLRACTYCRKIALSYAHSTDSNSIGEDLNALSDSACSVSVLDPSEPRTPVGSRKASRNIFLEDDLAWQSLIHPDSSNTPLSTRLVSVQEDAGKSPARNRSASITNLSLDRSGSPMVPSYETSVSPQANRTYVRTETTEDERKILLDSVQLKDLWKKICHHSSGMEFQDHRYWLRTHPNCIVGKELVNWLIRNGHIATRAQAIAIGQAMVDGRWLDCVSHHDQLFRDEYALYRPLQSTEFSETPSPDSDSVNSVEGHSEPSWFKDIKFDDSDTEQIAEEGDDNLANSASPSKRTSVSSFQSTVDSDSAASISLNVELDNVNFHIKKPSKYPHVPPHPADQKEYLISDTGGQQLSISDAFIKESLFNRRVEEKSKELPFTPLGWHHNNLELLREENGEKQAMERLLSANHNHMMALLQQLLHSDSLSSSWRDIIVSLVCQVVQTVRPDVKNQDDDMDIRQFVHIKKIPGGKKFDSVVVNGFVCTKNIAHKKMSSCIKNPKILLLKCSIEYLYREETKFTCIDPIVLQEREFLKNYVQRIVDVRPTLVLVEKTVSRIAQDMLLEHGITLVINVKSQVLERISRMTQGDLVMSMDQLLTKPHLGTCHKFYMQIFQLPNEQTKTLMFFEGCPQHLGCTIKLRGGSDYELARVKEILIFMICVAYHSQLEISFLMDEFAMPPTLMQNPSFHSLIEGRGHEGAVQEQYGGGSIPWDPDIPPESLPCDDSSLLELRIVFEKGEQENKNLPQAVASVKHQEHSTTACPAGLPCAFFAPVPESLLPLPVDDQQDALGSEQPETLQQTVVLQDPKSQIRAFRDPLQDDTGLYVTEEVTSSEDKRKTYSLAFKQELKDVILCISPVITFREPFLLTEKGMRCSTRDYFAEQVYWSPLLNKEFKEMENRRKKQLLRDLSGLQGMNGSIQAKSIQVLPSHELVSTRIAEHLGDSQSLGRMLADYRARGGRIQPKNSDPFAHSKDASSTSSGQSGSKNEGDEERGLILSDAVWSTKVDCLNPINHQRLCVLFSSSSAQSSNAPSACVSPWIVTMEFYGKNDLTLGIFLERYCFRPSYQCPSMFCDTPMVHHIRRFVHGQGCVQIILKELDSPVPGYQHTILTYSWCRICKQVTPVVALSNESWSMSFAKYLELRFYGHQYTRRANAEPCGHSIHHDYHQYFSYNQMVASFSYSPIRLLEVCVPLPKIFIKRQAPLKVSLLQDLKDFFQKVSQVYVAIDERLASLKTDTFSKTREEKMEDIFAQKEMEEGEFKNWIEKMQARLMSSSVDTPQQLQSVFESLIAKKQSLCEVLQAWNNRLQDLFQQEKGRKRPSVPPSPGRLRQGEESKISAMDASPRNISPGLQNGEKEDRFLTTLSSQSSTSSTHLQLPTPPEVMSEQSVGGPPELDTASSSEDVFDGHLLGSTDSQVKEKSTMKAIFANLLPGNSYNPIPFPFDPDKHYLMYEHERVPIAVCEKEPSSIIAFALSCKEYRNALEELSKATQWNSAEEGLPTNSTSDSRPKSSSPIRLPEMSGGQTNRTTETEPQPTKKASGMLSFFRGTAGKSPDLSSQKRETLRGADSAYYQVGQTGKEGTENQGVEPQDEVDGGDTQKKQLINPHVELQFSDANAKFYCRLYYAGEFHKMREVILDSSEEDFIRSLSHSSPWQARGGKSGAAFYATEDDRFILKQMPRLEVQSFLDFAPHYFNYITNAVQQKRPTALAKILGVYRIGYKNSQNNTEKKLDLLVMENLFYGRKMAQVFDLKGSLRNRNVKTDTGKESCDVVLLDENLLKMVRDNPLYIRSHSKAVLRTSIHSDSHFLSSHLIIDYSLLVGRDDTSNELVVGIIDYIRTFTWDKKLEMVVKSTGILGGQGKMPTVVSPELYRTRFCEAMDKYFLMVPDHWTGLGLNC
Chain of CSNK1A1 (P48729 whole entry): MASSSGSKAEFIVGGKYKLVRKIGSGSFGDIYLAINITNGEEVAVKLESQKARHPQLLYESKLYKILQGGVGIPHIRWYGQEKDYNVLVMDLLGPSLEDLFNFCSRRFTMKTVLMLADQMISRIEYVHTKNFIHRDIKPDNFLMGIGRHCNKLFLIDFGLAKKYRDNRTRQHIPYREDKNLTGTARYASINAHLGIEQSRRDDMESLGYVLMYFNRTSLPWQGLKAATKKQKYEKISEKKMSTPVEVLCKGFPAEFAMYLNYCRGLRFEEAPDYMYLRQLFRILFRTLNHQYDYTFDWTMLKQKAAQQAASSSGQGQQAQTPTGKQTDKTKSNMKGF

On to `CN1CCN(c2ccc(Nc3ncc(C#N)c(Nc4ccccc4C(N)=O)n3)cc2)CC1.Cl` [TCMDC-134116], for which the Kd on MAP4K5 is 185 nM and 192 nM; on CSNK1A1 it was 742 nM and 1080 nM; on DDR1, 326 nM and 266 nM; on GSK3B, 857 nM and 535 nM; at MERTK it was 325 nM; at PIP5K3, 681 nM and 785 nM. Also, the Kd on STK10 was 25.6 nM and 49.6 nM; on TNIK, 92.2 nM and 115 nM. Also, in the test on HepG2 cells, the “Inhibition of HepG2 cell growth at 10 μM” value is 43%. Further, the PCT_INHIB_HEPG2 with HepG2 cells (HepG2, downloaded from ChEMBL, ref F.J. Gamo et al., Nature 2010) is 43%. Further, the IC50 against MAP2K5 is 400 nM and 520 nM.
As to `Cl.NCC1(c2nc(-c3ccc(Cl)c(O)c3)c(-c3ccncc3)[nH]2)CCCCC1` [TCMDC-141154], the Kd at MAP4K5 is 3310 nM; at CSNK1A1 it was 224 nM and 255 nM; at DDR1, 977 nM; on GSK3B, 2750 nM; at MERTK, 4800 nM; at PIP5K3, 524 nM. In addition, the figures for the Kd on STK10 and on TNIK were 30.4 nM and 134 nM, respectively. In addition, the “Inhibition of HepG2 cell growth at 10 μM” value in the test with HepG2 cells was 48%. Moreover, in the test on HepG2 cells (HepG2 cells, downloaded from ChEMBL ref F.J. Gamo et al., Nature 2010), the PCT_INHIB_HEPG2 was 48. For the same compound, the IC50 against MAP2K5 was determined as 880 nM.
For `CN(C)CC(O)COc1ccc(Nc2ncc([N+](=O)[O-])c(Nc3ccccc3O)n2)cc1.O=C(O)C(F)(F)F` (stereo not drawn) [TCMDC-141399], the Kd on MAP4K5 was 2850 nM; at CSNK1A1 it was 7650 nM; on DDR1 it was 5970 nM; on GSK3B, 3000 nM and 3930 nM; at MERTK, 567 nM; at PIP5K3, 3930 nM and 2770 nM. Besides, the Kd at STK10 was found to be 3360 nM; at TNIK it was 378 nM. For the same compound, the “Inhibition of HepG2 cell growth at 10 μM” value in the test with HepG2 cells was 47%. For the same compound, the PCT_INHIB_HEPG2 in the test on HepG2 cells (HepG2 cells, ref ChEMBL) was 47. The IC50 against MAP2K5 was > 20000 nM.
